From US20260355188A1, “COMBINATION THERAPIES USING PRMT5 INHIBITORS AND BCL-2 FAMILY INHIBITORS FOR THE TREATMENT OF CANCER” (MIRATI THERAPEUTICS, INC., priority 2022, published 2026)

Tests used:
[1] = tested on: H1437; test: In vitro combination synergy, H1437 (Cell-Titer Glo); type: cell-based; conditions: combined with exemplary PRMT5 inhibitor, 120 h, sum of Loewe, Bliss, HSA and ZIP scores
Procedure: (§1) A panel of MTAP-deleted cancer cell lines was assembled to determine whether combining BCL-2 family inhibitors with exemplary PRMT5 inhibitors disclosed herein results in synergistic activity.
(§2) [Assays for determining the synergy score for the pairwise combinations for each cell line were performed in triplicate. 384 or 96-well plates plus additional wells of a separate 384 or 96-well control plate for determining baseline luminescence were seeded with cells of a particular MTAP-deleted cell line in a suitable growth medium for that cell line, e.g., RPMI 1640 medium supplemented with 10% FBS and any cell line specific reagents needed for growth. The plates were incubated overnight at 37 °C in a 5% CO2 atmosphere.
(§3) To each of the designated baseline wells, Cell-Titer Glo reagent (CTG; Promega Corporation) was added to each well and the plates were incubated for 20 min shaking at room temperature. Baseline luminescence was quantitated using a BMG ClarioStar multimode plate reader according to the manufacturer's instructions.
(§4) A series of 1000× drug dilutions in 100% DMSO was prepared that includes a 9-point single agent 3-fold dilution of the exemplary PRMT5 inhibitor (of the type described in WO2021/050915) with a top dose of 3000 nM (and a 6-point single agent 5-fold dilution of the BCL-2 family inhibitor with a top dose of 3000 nM as reference standards.
(§5) A 10× intermediate dosing plate was prepared in serum free medium that contains arrayed single agent dilutions of exemplary PRMT5 inhibitor (of the type described in WO2021/050915) and or the BCL-2 family inhibitor. In addition, a matrix of 54 dilution combinations of exemplary PRMT5 inhibitor (of the type described in WO2021/050915) and the BCL-2 family inhibitor was prepared as test samples.
(§6) To each corresponding well of the 384-well plates seeded with the appropriate cell line above, 10× single agent and the 54 combinations of the dose matrix was added and the plates were incubated for 120 hours at 37 °C in 5% CO2 atmosphere. Cell-Titer Glo reagent (CTG) was added to each test well, the plates were incubated for 20 min shaking at room temperature, and luminescence was quantitated using a BMG ClarioStar multimode plate reader according to the manufacturer's instructions. To normalize test samples, the determined baseline luminescence was subtracted from each test sample prior to analysis and mean values are calculated from replicate samples.
(§7) The output of the data from each mathematical model is the assignment of a relative synergy score. The data reported in Table 6 are the aggregate sum of the Loewe additivity, Bliss independence, Highest Single Agent and ZIP synergy scores (“Composite Synergy Score”).

[2] = tested on: H2052; test: In vitro combination synergy, H2052 (Cell-Titer Glo); type: cell-based; conditions: combined with exemplary PRMT5 inhibitor, 120 h, sum of Loewe, Bliss, HSA and ZIP scores
Procedure: as §1, §2, §3, §4, §5, §6, §7

[3] = tested on: RT4; test: In vitro combination synergy, RT4 (Cell-Titer Glo); type: cell-based; conditions: combined with exemplary PRMT5 inhibitor, 120 h, sum of Loewe, Bliss, HSA and ZIP scores
Procedure: as §1, §2, §3, §4, §5, §6, §7

[4] = tested on: Miapaca2; test: In vitro combination synergy, Miapaca2 (Cell-Titer Glo); type: cell-based; conditions: combined with exemplary PRMT5 inhibitor, 120 h, sum of Loewe, Bliss, HSA and ZIP scores
Procedure: as §1, §2, §3, §4, §5, §6, §7

[5] = tested on: H2228; test: In vitro combination synergy, H2228 (Cell-Titer Glo); type: cell-based; conditions: combined with exemplary PRMT5 inhibitor, 120 h, sum of Loewe, Bliss, HSA and ZIP scores
Procedure: as §1, §2, §3, §4, §5, §6, §7

[6] = tested on: H1650; test: In vitro combination synergy, H1650 (Cell-Titer Glo); type: cell-based; conditions: combined with exemplary PRMT5 inhibitor, 120 h, sum of Loewe, Bliss, HSA and ZIP scores
Procedure: as §1, §2, §3, §4, §5, §6, §7

[7] = tested on: SW1573; test: In vitro combination synergy, SW1573 (Cell-Titer Glo); type: cell-based; conditions: combined with exemplary PRMT5 inhibitor, 120 h, sum of Loewe, Bliss, HSA and ZIP scores
Procedure: as §1, §2, §3, §4, §5, §6, §7

[8] = tested on: Mero14; test: In vitro combination synergy, Mero14 (Cell-Titer Glo); type: cell-based; conditions: combined with exemplary PRMT5 inhibitor, 120 h, sum of Loewe, Bliss, HSA and ZIP scores
Procedure: as §1, §2, §3, §4, §5, §6, §7

[9] = tested on: SU8686; test: In vitro combination synergy, SU8686 (Cell-Titer Glo); type: cell-based; conditions: combined with exemplary PRMT5 inhibitor, 120 h, sum of Loewe, Bliss, HSA and ZIP scores
Procedure: as §1, §2, §3, §4, §5, §6, §7

[10] = tested on: Mero83; test: In vitro combination synergy, Mero83 (Cell-Titer Glo); type: cell-based; conditions: combined with exemplary PRMT5 inhibitor, 120 h, sum of Loewe, Bliss, HSA and ZIP scores
Procedure: as §1, §2, §3, §4, §5, §6, §7

[11] = tested on: LU99; test: In vitro combination synergy, LU99 (Cell-Titer Glo); type: cell-based; conditions: combined with exemplary PRMT5 inhibitor, 120 h, sum of Loewe, Bliss, HSA and ZIP scores
Procedure: as §1, §2, §3, §4, §5, §6, §7

[12] = tested on: A549; test: In vitro combination synergy, A549 (Cell-Titer Glo); type: cell-based; conditions: combined with exemplary PRMT5 inhibitor, 120 h, sum of Loewe, Bliss, HSA and ZIP scores
Procedure: as §1, §2, §3, §4, §5, §6, §7

[13] = tested on: H2452; test: In vitro combination synergy, H2452 (Cell-Titer Glo); type: cell-based; conditions: combined with exemplary PRMT5 inhibitor, 120 h, sum of Loewe, Bliss, HSA and ZIP scores
Procedure: as §1, §2, §3, §4, §5, §6, §7

[14] = tested on: HCC4006; test: In vitro combination synergy, HCC4006 (Cell-Titer Glo); type: cell-based; conditions: combined with exemplary PRMT5 inhibitor, 120 h, sum of Loewe, Bliss, HSA and ZIP scores
Procedure: as §1, §2, §3, §4, §5, §6, §7

[15] = tested on: Mero84; test: In vitro combination synergy, Mero84 (Cell-Titer Glo); type: cell-based; conditions: combined with exemplary PRMT5 inhibitor, 120 h, sum of Loewe, Bliss, HSA and ZIP scores
Procedure: as §1, §2, §3, §4, §5, §6, §7

[16] = tested on: LU99 xenograft tumors; test: In vivo combination study (LU99 model), Example 1; set-up: species or system female nu/nu mice; conditions: MRTX1719, ABT-263, ABT-199 each 100 mg/kg PO QD, alone or combined
Text: Immunodeficient female nu/nu mice were implanted with 5×10^6 LU99 cancer cells in 50% Matrigel. Tumor volume measurements were collected using calipers and determined utilizing the formula 0.5×L×W^2 in which L refers to length and W refers to width of each tumor. When tumors reached approximately 125-150 mm^3, animals were randomized to receive A) vehicle, B) a PRMT5 inhibitor, C) navitoclax (ABT-263), D) venetoclax (ABT-199), E) A-1331852, F) the PRMT5 inhibitor and navitoclax, F) the PRMT5 inhibitor and venetoclax, or G) the PRMT5 inhibitor and A-1331852 all administered orally (PO) with the indicated dose and schedule for 20-34 days. Tumor volume was measured twice a week (n=5/treatment group). Average tumor volume and standard error of the mean was calculated and plotted at each study day using GraphPad Prism.
The PRMT5 inhibitor was MRTX1719 administered at 100 mg/kg once a day (QD). MRTX1719 is (2M)-2-(4-(4-(aminomethyl)-1-oxo-1,2-dihydrophthalazin-6-yl)-1-methyl-1H-pyrazol-5-yl)-4-chloro-6-cyclopropoxy-3-fluorobenzonitrile, disclosed as Example 16-8 at p. 307 of the international patent publication No. WO 2021/050915 A1, published 18 Mar. 2021, incorporated by reference in its entirety.
The BCL-2 family inhibitors used in this example, ABT-199 (venetoclax) and ABT-263 (navitoclax), were administered at 100 mg/kg once a day (QD) and supplied by Selleck Chemicals (Houston, TX).

Compound | Composite Synergy Score [1] | Composite Synergy Score [2] | Composite Synergy Score [3] | Composite Synergy Score [4] | Composite Synergy Score [5] | Composite Synergy Score [6] | Composite Synergy Score [7] | Composite Synergy Score [8] | Composite Synergy Score [9] | Composite Synergy Score [10] | Composite Synergy Score [11] | Composite Synergy Score [12] | Composite Synergy Score [13] | Composite Synergy Score [14] | Composite Synergy Score [15] | also measured
CN(C)CC#Cc1ccc(OCCCc2sc(N3CCc4cccc(C(=O)Nc5nc6ccccc6s5)c4C3)nc2C(=O)O)c(F)c1 [A-1155463] | 17 | 14 | 37 | 44 | 46 | 51 | 29 | 12 | 50 | −11 | 27 | 22 | 37 | 88 | 0 | –
CC1(C)CCC(CN2CCN(c3ccc(C(=O)NS(=O)(=O)c4ccc(NCC5CCOCC5)c([N+](=O)[O-])c4)c(Oc4cnc5[nH]ccc5c4)c3)CC2)=C(c2ccc(Cl)cc2)C1 [ABT-199, venetoclax] | 2 | −33 | 0 | −7 | −13 | −11 | −16 | −8 | 4 | 20 | −8 | −7 | 28 | −6 | −12 | Average Tumor Volume ([16]; day 3): 270 mm^3; Average Tumor Volume ([16]; day 6): 462 mm^3; Average Tumor Volume ([16]; day 10): 709 mm^3; Average Tumor Volume ([16]; day 13): 956 mm^3; Average Tumor Volume ([16]; day 17): 1395 mm^3; Average Tumor Volume ([16]; day 20): 1675 mm^3; Average Tumor Volume ([16]; day −1): 153 mm^3
